Laboratory results taken from PubChem BioAssay AID248 (DTP/NCI, 2004).
Toxic doses and inconclusive results are not listed. Cut-off read from the data, not from the text of the source: active = T/C of 150% or more; inactive = T/C below 125%.

System: L1210 leukemia ip in BDF1 mice, survival T/C
Test: NCI In Vivo Anticancer Drug Screen. Data for tumor model L1210 Leukemia (intraperitoneal) in B6D2F1 (BDF1) mice
Details: endpoint: mean survival time, higher = longer survival
Method in brief: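 Ratio derived from survival: compound-dosed mice over vehicle-dosed mice, all bearing a transplantable tumor.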

[1] = dose: 100.0 mg/kg/injection, schedule: Q04DX003 (ip), vehicle: saline with Tween-80
[2] = dose: 200.0 mg/kg/injection, schedule: Q04DX003 (ip), vehicle: saline with Tween-80
[3] = dose: 400.0 mg/kg/injection, schedule: Q04DX003 (ip), vehicle: saline with Tween-80
[4] = dose: 100.0 mg/kg/injection, schedule: Q01DX001 (ip), vehicle: saline
[5] = dose: 200.0 mg/kg/injection, schedule: Q01DX001 (ip), vehicle: saline
[6] = dose: 400.0 mg/kg/injection, schedule: Q01DX001 (ip), vehicle: saline
[7] = dose: 25.0 mg/kg/injection, schedule: Q01DX Z (ip), vehicle: carboxymethylcellulose (CMC)
[8] = dose: 10.0 mg/kg/injection, schedule: Q01DX001 (ip), vehicle: saline
[9] = dose: 20.0 mg/kg/injection, schedule: Q01DX001 (ip), vehicle: saline

Measured: T/C

N#CCCN(CCC#N)C(=O)Nc1cccc(Cl)c1
inactive: [1] 98 % of control | [2] 88 % of control | [3] 91 % of control

CCOC(=O)CS(C)(=O)=O
inactive: [4] 98 % of control | [5] 93 % of control | [6] 94 % of control

Nc1nc2c(c(=O)[nH]1)CN(C(CCc1ccc(N(CCCl)CCCl)cc1)C(=O)O)CN2 (stereo not drawn)
inactive: dose: 12.5 mg/kg/injection, schedule: Q01DX001 (ip), vehicle: carboxymethylcellulose (CMC) 111 % of control | dose: 25.0 mg/kg/injection, schedule: Q01DX001 (ip), vehicle: carboxymethylcellulose (CMC) 107 % of control | dose: 50.0 mg/kg/injection, schedule: Q01DX001 (ip), vehicle: carboxymethylcellulose (CMC) 113 % of control | dose: 50.0 mg/kg/injection, schedule: Q01DX009 (ip), vehicle: carboxymethylcellulose (CMC) 101 % of control | dose: 100.0 mg/kg/injection, schedule: Q01DX001 (ip), vehicle: carboxymethylcellulose (CMC) 111 % of control | dose: 100.0 mg/kg/injection, schedule: Q01DX009 (ip), vehicle: carboxymethylcellulose (CMC) 108 % of control

O=C(NCCCCCCNC(=O)Nc1ccc(C2=NCCCN2)cc1)Nc1ccc(C2=NCCCN2)cc1
inactive: dose: 6.25 mg/kg/injection, schedule: Q01DX Z (ip), vehicle: carboxymethylcellulose (CMC) 97 % of control | dose: 12.5 mg/kg/injection, schedule: Q01DX Z (ip), vehicle: carboxymethylcellulose (CMC) 97 % of control | [7] 100 % of control

COC1C(O)C(C)OC(OC2CCC3(C)C(CCC4C3C(O)CC3(C)C(C5=CC(=O)OC5)CCC43O)C2)C1O (stereo not drawn)
inactive: dose: 5.0 mg/kg/injection, schedule: Q01DX001 (ip), vehicle: saline 103 % of control | [8] 103 % of control | [9] 101 % of control

CCOC(=O)NC#N (tested in a mixture with another compound)
inactive: [8] 98 % of control | [9] 102 % of control | dose: 40.0 mg/kg/injection, schedule: Q01DX001 (ip), vehicle: saline 102 % of control

CN(C1=CC(=O)C(N(C)C2CCCCC2)=CC1=O)C1CCCCC1
inactive: dose: 7.5 mg/kg/injection, schedule: Q01DX009 (ip), vehicle: saline 90 % of control | dose: 15.0 mg/kg/injection, schedule: Q01DX009 (ip), vehicle: saline 93 % of control

O=S(=O)(Cc1ccccc1)Cc1ccccc1
inactive: dose: 50.0 mg/kg/injection, schedule: Q01DX001 (ip), vehicle: saline 101 % of control | [4] 95 % of control | [1] 96 % of control | [5] 95 % of control | [2] 100 % of control | [6] 91 % of control | [3] 100 % of control

COc1cc(C=C2c3ccccc3-c3ccccc32)ccc1O
inactive: [4] 91 % of control | dose: 100.0 mg/kg/injection, schedule: Q04DX003 (ip), vehicle: saline 99 % of control | [5] 91 % of control | dose: 200.0 mg/kg/injection, schedule: Q04DX003 (ip), vehicle: saline 91 % of control | [6] 91 % of control | dose: 400.0 mg/kg/injection, schedule: Q04DX003 (ip), vehicle: saline 91 % of control

Cc1c(C)c(C)c(CN/N=C/c2ccncc2)c(C)c1C
inactive: dose: 100.0 mg/kg/injection, schedule: Q04DX003 (ip), vehicle: Klucel (hydroxypropylcellulose) (HPC) 98 % of control | dose: 200.0 mg/kg/injection, schedule: Q04DX003 (ip), vehicle: Klucel (hydroxypropylcellulose) (HPC) 109 % of control | dose: 400.0 mg/kg/injection, schedule: Q04DX003 (ip), vehicle: Klucel (hydroxypropylcellulose) (HPC) 101 % of control

CCOC(=O)c1c[n]([Hg][n]2cc(C(=O)OCC)c(Nc3ccccc3Cl)nc2=O)c(=O)nc1Nc1ccccc1Cl
inactive: dose: 3.0 mg/kg/injection, schedule: Q01DX009 (ip), vehicle: saline with Tween-80 96 % of control | dose: 6.0 mg/kg/injection, schedule: Q01DX009 (ip), vehicle: saline with Tween-80 96 % of control | dose: 12.0 mg/kg/injection, schedule: Q01DX009 (ip), vehicle: saline with Tween-80 95 % of control | dose: 12.5 mg/kg/injection, schedule: Q04DX003 (ip), vehicle: saline with Tween-80 100 % of control

COC(=O)CC(c1ccccc1)N1CCCC1 (stereo not drawn)
inactive: [4] 98 % of control | [5] 104 % of control | [6] 108 % of control

N#CCc1cn(-c2ccccc2)nn1
inactive: dose: 9.38 mg/kg/injection, schedule: Q01DX001 (ip), vehicle: other 101 % of control | dose: 18.75 mg/kg/injection, schedule: Q01DX001 (ip), vehicle: other 96 % of control | dose: 37.5 mg/kg/injection, schedule: Q01DX001 (ip), vehicle: other 97 % of control

O=C1c2ccccc2C(=O)c2c(Nc3ccccc3)ccc(NCCO)c21
inactive: [4] 102 % of control | [5] 100 % of control | [6] 97 % of control

c1ccc2c(-c3nc4ccccc4[nH]3)cccc2c1
inactive: dose: 100.0 mg/kg/injection, schedule: Q01DX009 (ip), vehicle: saline with Tween-80 91 % of control | [1] 93 % of control | dose: 200.0 mg/kg/injection, schedule: Q01DX009 (ip), vehicle: saline with Tween-80 96 % of control | [2] 93 % of control | dose: 400.0 mg/kg/injection, schedule: Q01DX009 (ip), vehicle: saline with Tween-80 93 % of control | [3] 102 % of control

CCCCCCCCCCCCOCCCCCCCCCCCC
inactive: dose: 100.0 mg/kg/injection, schedule: Q01DX009 (sc), vehicle: olive oil, sesame oil, peanut oil 104 % of control | dose: 100.0 mg/kg/injection, schedule: Q04DX003 (sc), vehicle: olive oil, sesame oil, peanut oil 114 % of control | dose: 200.0 mg/kg/injection, schedule: Q01DX009 (sc), vehicle: olive oil, sesame oil, peanut oil 100 % of control | dose: 200.0 mg/kg/injection, schedule: Q04DX003 (sc), vehicle: olive oil, sesame oil, peanut oil 106 % of control | dose: 400.0 mg/kg/injection, schedule: Q01DX009 (sc), vehicle: olive oil, sesame oil, peanut oil 102 % of control | dose: 400.0 mg/kg/injection, schedule: Q04DX003 (sc), vehicle: olive oil, sesame oil, peanut oil 104 % of control

COc1cc(C)c([N+](=O)[O-])cc1OC
inactive: [4] 106 % of control | [5] 97 % of control | [6] 101 % of control

CN(C)c1ccc(NC(=O)/C=C/C(=O)O)cc1
inactive: [1] 108 % of control | [2] 101 % of control | [3] 101 % of control

CC(C)CNS(=O)(=O)c1ncnc2nc[nH]c12
inactive: dose: 6.0 mg/kg/injection, schedule: Q01DX Z (ip), vehicle: carboxymethylcellulose (CMC) 103 % of control | dose: 12.0 mg/kg/injection, schedule: Q01DX Z (ip), vehicle: carboxymethylcellulose (CMC) 100 % of control | [7] 106 % of control | dose: 50.0 mg/kg/injection, schedule: Q01DX Z (ip), vehicle: carboxymethylcellulose (CMC) 92 % of control

CC(=O)OCC/[N+]([O-])=C\c1ncc([N+](=O)[O-])n1C
inactive: dose: 100.0 mg/kg/injection, schedule: Q04DX002 (ip), vehicle: saline 100 % of control | dose: 200.0 mg/kg/injection, schedule: Q04DX002 (ip), vehicle: saline 114 % of control | dose: 400.0 mg/kg/injection, schedule: Q04DX002 (ip), vehicle: saline 100 % of control

N#CC(CCCc1ccccc1)c1ccc(N)cc1 (stereo not drawn)
inactive: dose: 100.0 mg/kg/injection, schedule: Q01DX001 (ip), vehicle: Klucel (hydroxypropylcellulose) (HPC) 91 % of control | dose: 200.0 mg/kg/injection, schedule: Q01DX001 (ip), vehicle: Klucel (hydroxypropylcellulose) (HPC) 94 % of control | dose: 400.0 mg/kg/injection, schedule: Q01DX001 (ip), vehicle: Klucel (hydroxypropylcellulose) (HPC) 103 % of control

O=S(=O)(c1ccccc1)N1CCOC1=S
inactive: dose: 100.0 mg/kg/injection, schedule: Q04DX003 (ip), vehicle: acetone 93 % of control | dose: 200.0 mg/kg/injection, schedule: Q04DX003 (ip), vehicle: acetone 101 % of control | dose: 400.0 mg/kg/injection, schedule: Q04DX003 (ip), vehicle: acetone 93 % of control
